Measurements from patent US20220162215A1, “COMPOSITIONS AND METHODS OF USING THE SAME FOR TREATMENT OF NEURODEGENERATIVE AND MITOCHONDRIAL DISEASE” (MITOKININ, INC., priority 2019, published 2022).
≈ marks a conversion by molar mass, not a printed value. Like-named read-outs stand apart in the source and are kept apart here.

Assays:
[1] = Solubility in 1× PBS; format: physicochemical
[2] = test system: HeLa MKYP cells; test: Toxicity / cell death measured by DAPI staining (take-up); format: cell-based; details: for Max cell death at 25 uM compound, 1 uM FO / Cell death at 25 μM (no FO): Table 3 Supplement B
Protocol: H2O2 treatment was performed as a control for cell death as measured by DAPI staining.
(§1) Briefly, HeLa MKYP cells were plated at 10,000 cells/well in 96 well plates along with compounds at various concentrations. Following 16 hrs of incubation, cells were treated with 1 uM FCCP/oligomycin for 6 hours, then analyzed via FACS for the presence of mitochondria in lysosomes (as determined by an emissions spectrum shift from the pH-sensitive mtKeima tag).

[3] = test system: HeLa MKYP cells; test: Human mitophagy assay (HeLa MKYP, mtKeima FACS, FCCP/oligomycin); format: cell-based
Protocol: as §1, with “tag). Examples are shown in FIG. 1 through FIG. 13 below.” for “tag).”

[4] = test system: Hela MKYP (Mito-Keima/YFP-Parkin) cells; test: Inspection of round cells; details: Tables 6A-6D
Protocol: (§2) Briefly, the Hela MKYP (Mito-Keima/YFP-Parkin) cells were seeded at 10K cells/well. EP/MTK compounds were added at seeding (cells were still in suspension). The cells were incubated with the EP/MTK compounds for 16 hours, then 1 μM FCCP/oligomycin was added for 6 hours. Prior to harvesting, cells were scored by eye under 20× magnification for the presence or absence of crystalline or aggregated compound, or round cells.

[5] = Visual inspection of crystallization; format: physicochemical; set-up: key: 1: yes crystals; 0: no crystals; details: Tables 5A-5D
Protocol: as §2

[6] = Homo sapiens, HeLa, Table 3, read-out: Potency at 1 μM F/O toxin* (EC50 of mitophagy activation)
[7] = Homo sapiens, HeLa, Table 3 Supplement B, read-out: Mitophagy EC50 (HeLa mKeima assay)
[8] = Table 3, read-out: Potency at 1 μM F/O toxin* (EC50 of mitophagy activation)
[9] = Homo sapiens, HeLa, Table 3 Supplement A, as measured in Table 3, read-out: Potency (EC50 Max Mitophagy) (μM)*

Structure (SMILES) | solubility [1] [µM] | Toxicity (% positive for DAPI takeup @ 50 μM) ([2]; Table 3) [%] | Max cell death at 25 uM compound, 1 uM FO [2] [%] | Cell death at 25 μM (no FO) [2] [%] | EC50 [3, 6] [µM] | EC50 [3, 7] [µM] | other results
C[C@@H]1CCc2ccccc2[C@H]1Nc1ncnc2[nH]c(C(F)(F)F)cc12 [Compound 103] | 1 (≈ 0.346 µg/mL) | 23.8 | 23.8 | 17.9 | 4.2 | 4.18 | 
CN(C)[C@H]1CCc2ccccc2[C@@H]1Nc1ncnc2[nH]c(C(F)(F)F)cc12 [Compound 108] | 190 (≈ 71.3 µg/mL) | 79.3 | 79.29 | 4.33 | > 50 | 0.81 | 
Oc1ccc2c(c1)CCC[C@H]2Nc1ncnc2[nH]c(C(F)(F)F)cc12 [Compound 110] | 102 (≈ 35.5 µg/mL) | 11.0 | 11 | 3.32 | 4.4 | 4.38 | 
CO[C@H]1COc2ccccc2[C@@H]1Nc1ncnc2[nH]c(C(F)(F)F)cc12 [Compound 104] |  | 7.7 |  |  |  |  | solubility ([1]; aqueous buffer): 1.31 µM (≈ 0.477 µg/mL); Max cell death at 25 uM compound, 1 uM FO ([2]; listed as EP-0037962): 7.67%; Cell death at 25 μM (no FO) ([2]; listed as EP-0037962): 5.15%; EC50 [3, 8]: 1.5 µM; EC50 ([3]; Table 3 Supplement B, listed as EP-0037962, read-out: Mitophagy EC50 (HeLa mKeima assay)): 1.48 µM
O[C@H]1Cc2ccccc2[C@H]1Nc1ncnc2[nH]c(C(F)(F)F)cc12 [Compound 83] | 194 (≈ 64.9 µg/mL) | 21.2 | 21.2 | 2.75 | > 50 |  | Mitophagy EC50 (HeLa mKeima assay) ([3]; Table 3 Supplement B): Minimal activity
CC(=O)N1CCC(Nc2ncnc3[nH]c(C(F)(F)F)cc23)c2ccccc21 (stereo not shown) [Compound 93] | 1.32 (≈ 0.495 µg/mL) | 6.9 | 6.92 | 2.69 |  | 17.3 | 
CO[C@@H]1COc2ccccc2[C@H]1Nc1ncnc2[nH]c(C(F)(F)F)cc12 [Compound 97] | 16.4 (≈ 5.97 µg/mL) | 10.6 | 10.645 | 2.61 | 6.3 | 6.32 | 
CO[C@H]1COc2ccccc2[C@H]1Nc1ncnc2[nH]c(C(F)(F)F)cc12 [Compound 99] | 20.9 (≈ 7.61 µg/mL) | 3.6 | 3.555 | 2.49 | 13.3 | 13.3 | 
C[C@@H](Nc1ncnc2[nH]cnc12)c1ccccc1 [Compound 52] |  | 10.1 |  |  | > 50 |  | Inspection of round cells ([4]; 1.6 μM): 0; Inspection of round cells ([4]; 3.1 μM): 0; Inspection of round cells ([4]; 6.3 μM): 0; Inspection of round cells ([4]; 12.5 μM): 0; Inspection of round cells ([4]; 25.0 μM): 0; Inspection of round cells ([4]; 50.0 μM): 0; Toxicity (% positive for DAPI take-up at 50 μM)* ([2]; Table 3 Supplement A, listed as EP-0036297): 10.14%; Visual inspection of crystallization ([5]; 1.6 μM): 0; Visual inspection of crystallization ([5]; 3.1 μM): 0; Visual inspection of crystallization ([5]; 6.3 μM): 0; Visual inspection of crystallization ([5]; 12.5 μM): 0; Visual inspection of crystallization ([5]; 25.0 μM): 0; Visual inspection of crystallization ([5]; 50.0 μM): 0; EC50 [3, 9]: > 25 µM
C[C@H]1CCc2ccccc2[C@H]1Nc1ncnc2[nH]c(C(F)(F)F)cc12 [Compound 101] |  | 12.0 |  |  |  |  | solubility ([1]; aqueous buffer): 7.79 µM (≈ 2.7 µg/mL); Max cell death at 25 uM compound, 1 uM FO ([2]; listed as EP-0037881): 12%; Cell death at 25 μM (no FO) ([2]; listed as EP-0037881): 6.45%; EC50 [3, 8]: > 50 µM; Mitophagy EC50 (HeLa mKeima assay) ([3]; Table 3 Supplement B): Minimal activity
c1ncc(CNc2ncnc3[nH]cnc23)cn1 [Compound 67] |  |  |  |  | 4.4 |  | Inspection of round cells ([4]; 1.6 μM): 0; Inspection of round cells ([4]; 3.1 μM): 0; Inspection of round cells ([4]; 6.3 μM): 0; Inspection of round cells ([4]; 12.5 μM): 0; Inspection of round cells ([4]; 25.0 μM): 0; Inspection of round cells ([4]; 50.0 μM): 0; Toxicity (% positive for DAPI take-up at 50 μM)* ([2]; human): 5.33%; Toxicity (% positive for DAPI takeup @ 50 μM) ([2]; human): 5.3%; Visual inspection of crystallization ([5]; 1.6 μM): 0; Visual inspection of crystallization ([5]; 3.1 μM): 0; Visual inspection of crystallization ([5]; 6.3 μM): 0; Visual inspection of crystallization ([5]; 12.5 μM): 0; Visual inspection of crystallization ([5]; 25.0 μM): 0; Visual inspection of crystallization ([5]; 50.0 μM): 0; EC50 [3, 9]: 4.42 µM
